From patent publication US20120029187A1, “HALOALKYLSULFONANILIDE DERIVATIVE” (Nissan Chemical Industries, Ltd., priority 2009, published 2012)

Legend:
Type in all cases: in vivo
[1] = tested on: barnyardgrass; test: Test Example 1: herbicidal effects in preemergence treatment under submerged conditions; conditions: dose 2.52 g/a
In short: (§1)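 Score 0–5 by mortality (5: ≥90%; 0: <5%), read 3 weeks post-application. Paddy-type cups: alluvial soil under 4 cm water, weeds seeded plus transplanted 2.5-leaf rice; diluted EC dosed onto water surface same day as sowing, g/a basis; greenhouse 25 to 30° C.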

[2] = tested on: bulrush; test: as above; conditions: dose 2.52 g/a
In short: as §1

[3] = tested on: ducksalad; test: as above; conditions: dose 2.52 g/a
In short: as §1

[4] = tested on: barnyardgrass; test: Test Example 2: herbicidal effects during the vegetation period under submerged conditions; conditions: treatment during the vegetation period under submerged conditions; dose 2.52 g/a
In short: (§2)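 Barnyardgrass, bulrush and ducksalad were co-sown in alluvial soil flooded to 4 cm and grown in a greenhouse at 25 to 30° C. At the 1- or 2-leaf stage, water-diluted emulsifiable concentrates went onto the water surface at set doses (g/a). Herbicidal effect was scored three weeks later on a graded scale.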

[5] = tested on: bulrush; test: as above; conditions: treatment during the vegetation period under submerged conditions; dose 2.52 g/a
In short: as §2

[6] = tested on: ducksalad; test: as above; conditions: treatment during the vegetation period under submerged conditions; dose 2.52 g/a
In short: as §2

[7] = tested on: Italian ryegrass; test: Test Example 3: herbicidal effects in soil treatment; conditions: dose 3.2 g/a
In short: (§3)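 Seeds were sown in sterilized diluvial soil and covered with about 1.5 cm of soil. Compounds, formulated as emulsifiable concentrates and diluted with water, were sprayed evenly over the soil surface at set doses in g/a. Herbicidal effect was scored on a rating scale three weeks later.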

[8] = tested on: barnyardgrass; test: as above; conditions: dose 3.2 g/a
In short: as §3

[9] = tested on: common chickweed; test: as above; conditions: dose 3.2 g/a
In short: as §3

[10] = tested on: common lambsquater; test: as above; conditions: dose 3.2 g/a
In short: as §3

[11] = tested on: common ragweed; test: as above; conditions: dose 3.2 g/a
In short: as §3

[12] = tested on: giant foxtail; test: as above; conditions: dose 3.2 g/a
In short: as §3

[13] = tested on: large crabgrass; test: as above; conditions: dose 3.2 g/a
In short: as §3

[14] = tested on: posumbu knotweed; test: as above; conditions: dose 3.2 g/a
In short: as §3

[15] = tested on: redroot pigweed; test: as above; conditions: dose 3.2 g/a
In short: as §3

[16] = tested on: velvetleaf; test: as above; conditions: dose 3.2 g/a
In short: as §3

[17] = tested on: water foxtail; test: as above; conditions: dose 3.2 g/a
In short: as §3

[18] = tested on: Italian ryegrass; test: Test Example 4: herbicidal effect in foliage treatment; conditions: three weeks after application
In short: (§4)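 Post-emergence foliar spray of water-diluted emulsifiable concentrate at predetermined doses (g per are), applied to plants 14 days after sowing in sterile diluvial soil (greenhouse, 25 to 30° C). Visual scale rating of effect taken 3 weeks later.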

[19] = tested on: barnyardgrass; test: as above; conditions: three weeks after application
In short: as §4

[20] = tested on: beadstraw; test: as above; conditions: three weeks after application
In short: as §4

[21] = tested on: common chickweed; test: as above; conditions: three weeks after application
In short: as §4

[22] = tested on: common lambsquater; test: as above; conditions: three weeks after application
In short: as §4

[23] = tested on: common ragweed; test: as above; conditions: three weeks after application
In short: as §4

[24] = tested on: giant foxtail; test: as above; conditions: three weeks after application
In short: as §4

[25] = tested on: large crabgrass; test: as above; conditions: three weeks after application
In short: as §4

[26] = tested on: posumbu knotweed; test: as above; conditions: three weeks after application
In short: as §4

[27] = tested on: redroot pigweed; test: as above; conditions: three weeks after application
In short: as §4

[28] = tested on: velvetleaf; test: as above; conditions: three weeks after application
In short: as §4

[29] = tested on: water foxtail; test: as above; conditions: three weeks after application
In short: as §4

[30] = tested on: transplanted rice; test: Test Example 1: preemergence treatment under submerged conditions, effect on crop; conditions: dose 2.52 g/a
In short: as §1

SMILES	A: barnyardgrass, herbicidal effect (evaluation scale 0-5) [1]	B: bulrush, herbicidal effect (evaluation scale 0-5) [2]	C: ducksalad, herbicidal effect (evaluation scale 0-5) [3]	A: barnyardgrass, herbicidal effect (evaluation scale 0-5) [4]	B: bulrush, herbicidal effect (evaluation scale 0-5) [5]	C: ducksalad, herbicidal effect (evaluation scale 0-5) [6]	H: Italian ryegrass, herbicidal effect (evaluation scale 0-5) [7]	A: barnyardgrass, herbicidal effect (evaluation scale 0-5) [8]	L: common lambsquater, herbicidal effect (evaluation scale 0-5) [10]	J: common ragweed, herbicidal effect (evaluation scale 0-5) [11]	E: giant foxtail, herbicidal effect (evaluation scale 0-5) [12]	D: large crabgrass, herbicidal effect (evaluation scale 0-5) [13]	M: posumbu knotweed, herbicidal effect (evaluation scale 0-5) [14]	K: redroot pigweed, herbicidal effect (evaluation scale 0-5) [15]	I: velvetleaf, herbicidal effect (evaluation scale 0-5) [16]	G: water foxtail, herbicidal effect (evaluation scale 0-5) [17]	other results
CCOC(=O)N(c1ccccc1CN1CC(C)OCC1=O)S(=O)(=O)C(F)(F)F (stereo not shown) [Compound I-7]	5 (mortality of 90% or above (nearly complete death))	5 (mortality of 90% or above (nearly complete death))	5 (mortality of 90% or above (nearly complete death))	5 (mortality of 90% or above (nearly complete death))	5 (mortality of 90% or above (nearly complete death))	5 (mortality of 90% or above (nearly complete death))	5 (mortality of 90% or above (nearly complete death))	5 (mortality of 90% or above (nearly complete death))	5 (mortality of 90% or above (nearly complete death))	5 (mortality of 90% or above (nearly complete death))	5 (mortality of 90% or above (nearly complete death))	5 (mortality of 90% or above (nearly complete death))	5 (mortality of 90% or above (nearly complete death))	5 (mortality of 90% or above (nearly complete death))	5 (mortality of 90% or above (nearly complete death))	5 (mortality of 90% or above (nearly complete death))	N: common chickweed, herbicidal effect (evaluation scale 0-5) [9]: 5 (mortality of 90% or above (nearly complete death)); H: Italian ryegrass, herbicidal effect ([18]; dose 6.3 g/a): 5 (mortality of 90% or above (nearly complete death)); A: barnyardgrass, herbicidal effect ([19]; dose 6.3 g/a): 5 (mortality of 90% or above (nearly complete death)); O: beadstraw, herbicidal effect ([20]; dose 6.3 g/a): 5 (mortality of 90% or above (nearly complete death)); N: common chickweed, herbicidal effect ([21]; dose 6.3 g/a): 5 (mortality of 90% or above (nearly complete death)); L: common lambsquater, herbicidal effect ([22]; dose 6.3 g/a): 4 (mortality of at least 70% and less than 90%); J: common ragweed, herbicidal effect ([23]; dose 6.3 g/a): 4 (mortality of at least 70% and less than 90%); E: giant foxtail, herbicidal effect ([24]; dose 6.3 g/a): 5 (mortality of 90% or above (nearly complete death)); D: large crabgrass, herbicidal effect ([25]; dose 6.3 g/a): 5 (mortality of 90% or above (nearly complete death)); M: posumbu knotweed, herbicidal effect ([26]; dose 6.3 g/a): 4 (mortality of at least 70% and less than 90%); K: redroot pigweed, herbicidal effect ([27]; dose 6.3 g/a): 1 (mortality of at least 5% and less than 20%); I: velvetleaf, herbicidal effect ([28]; dose 6.3 g/a): 5 (mortality of 90% or above (nearly complete death)); G: water foxtail, herbicidal effect ([29]; dose 6.3 g/a): 5 (mortality of 90% or above (nearly complete death))
CCC(=O)N(c1ccccc1CN1COC(C)(C(F)(F)F)CC1=O)S(=O)(=O)C(F)(F)F (stereo not shown) [II-47]	5 (mortality of 90% or above (nearly complete death))	5 (mortality of 90% or above (nearly complete death))	5 (mortality of 90% or above (nearly complete death))	4 (mortality of at least 70% and less than 90%)	5 (mortality of 90% or above (nearly complete death))	5 (mortality of 90% or above (nearly complete death))	3 (mortality of at least 40% and less than 70%)	5 (mortality of 90% or above (nearly complete death))	3 (mortality of at least 40% and less than 70%)	4 (mortality of at least 70% and less than 90%)	4 (mortality of at least 70% and less than 90%)	5 (mortality of 90% or above (nearly complete death))	3 (mortality of at least 40% and less than 70%)	0 (mortality of less than 5% (almost ineffective))	4 (mortality of at least 70% and less than 90%)	5 (mortality of 90% or above (nearly complete death))	a: transplanted rice, effect on crop (evaluation scale 0-5) [30]: 0 (mortality of less than 5% (almost ineffective)); H: Italian ryegrass, herbicidal effect ([18]; dose 3.2 g/a): 0 (mortality of less than 5% (almost ineffective)); A: barnyardgrass, herbicidal effect ([19]; dose 3.2 g/a): 4 (mortality of at least 70% and less than 90%); O: beadstraw, herbicidal effect ([20]; dose 3.2 g/a): 4 (mortality of at least 70% and less than 90%); N: common chickweed, herbicidal effect ([21]; dose 3.2 g/a): 3 (mortality of at least 40% and less than 70%); L: common lambsquater, herbicidal effect ([22]; dose 3.2 g/a): 0 (mortality of less than 5% (almost ineffective)); J: common ragweed, herbicidal effect ([23]; dose 3.2 g/a): 2 (mortality of at least 20% and less than 40%); E: giant foxtail, herbicidal effect ([24]; dose 3.2 g/a): 2 (mortality of at least 20% and less than 40%); D: large crabgrass, herbicidal effect ([25]; dose 3.2 g/a): 1 (mortality of at least 5% and less than 20%); M: posumbu knotweed, herbicidal effect ([26]; dose 3.2 g/a): 2 (mortality of at least 20% and less than 40%); K: redroot pigweed, herbicidal effect ([27]; dose 3.2 g/a): 0 (mortality of less than 5% (almost ineffective)); I: velvetleaf, herbicidal effect ([28]; dose 3.2 g/a): 4 (mortality of at least 70% and less than 90%); G: water foxtail, herbicidal effect ([29]; dose 3.2 g/a): 2 (mortality of at least 20% and less than 40%)
